Experimental findings from patent publication US7488749B2, “Therapy of diseases of the eye, the inner ear and the central nervous system” (Cevec Pharmaceuticals GmbH, priority 2002, dated 2009) are described below.

Where two headings read alike, the source gives them in different places.

Series [1] concerns mRNA for catalase. As to the kind of experiment: Catalase mRNA expression in the chorioidea-RPE-complex after zinc injection (real time RT-PCR). It counts as in vivo, rat. The procedure:
After 6 and 24 hours the chorioidea-RPE-complex was isolated from the retina and sclera. The amount of catalase mRNA expression in the chorioidea-RPE-complex was quantified by real time RT-PCR with the SYBR Green I reaction system using an iCycler (Bio-Rad Laboratories, Hercules, Calif.). PCR primer (catalase: upper primer: TAGCCAGAAGAGAAACCCACAAACT (SEQ ID NO:1) and lower primer: TCCCTCGGTCGCTGAACAAGA (SEQ ID NO:2); GAPDH: upper primer: AACTTTGTGAAGCTCATTTCCTGGTAT (SEQ ID NO:3) and lower primer: CCT TGC TGG GCT GGG TGG T (SEQ ID NO:4)) were selected using the primer analysis software OLIGO®4.1 (National Biosciences, Plymoth, Minn., USA) that the primer specific melting temperature was between 58 and 60° C. […] The quantification data were calculated using the iCycler iQ System Software (Bio-Rad Laboratories, Hercules, Calif.). After subtraction of the PCR base line by the software, the linear logarithmic portion of the fluorescence was plotted versus the number of cycles to determine the cycle number (threshold cycle, CT) at which the threshold fluorescence for catalase and GAPDH as a reference was exceeded. Since the amplification effectivity of target and reference gene was approximately the same (delta CT<0.15) the comparative CT method was used for the quantification of the catalase in comparison GAPDH.
On the technique in general: Real-time PCR tracks product formation cycle by cycle.

Series [2] concerns human amelanotic retinal pigment epithelium cells ARPE-19. As to the kind of experiment: Survival of retinal pigment epithelium cells after lethal UVA radiation. The series is classed as cell-based. To be noted: without melanin. The procedure:
30.000 human amelanotic retinal pigment epithelium cells ARPE-19 (American Type culture Collections, Manassas, Va., USA) were cultivated in a mixture of DMEM and F12 Medium (PAA Laboratories, Linz, Austria) with 10% foetal calf serum, gentamycin and amphotericin and were incubated with 1 mg/ml melanin from squids (Sepia officinalis, Sigma). After 4 hours, the non-phagocytosed melanin was thoroughly washed away. After 24 hours the artificially pigmented cells were incubated with 100 or 200 μmol ZnCl2 for 2 hours. Three days later, the cells were irradiated using a HRL, 125 W, lamp (Radium, Germany) for 1 hour. The UVA light portion was 18 mW/cm^2 at the surface of the cell culture liquid and was measured using a RM-12 UV radiometer (Dr. Gröbel, UV Elektronik, Ettlingen, Germany). Cells without melanin and zinc treatment with and without irradiation served as controls. After 2 further days, the number of surviving cells was counted in a Thoma-chamber.
In the following table the mean values of surviving cells from 3 independent experiments are indicated. The number of surviving cells after irradiation without melanin and/or zinc treatment was statistically compared with the number of surviving cells with treatment. That is were the p-value results from. […] The number of surviving cells war increased by the factor 7.4 in comparison to untreated cells.

For series [3] the following is noted: for zinc concentration of the chorioidea-RPE-complex: 24 hours after 40 mg/kg ZnCl2 intraperitoneally. The procedure:
Two albino (Wistar) rats and two pigmented (Long Evans) rats were injected intraperitoneally with 40 mg/kg body weight ZnCl2. After 24 hours the chorioidea-RPE-complex was isolated from retina and sclera. Respective samples from untreated animals served as controls. The samples were weight directly into leak-proof PFA vessels (Savillex) (Microbalance Sartorius MC21S) and cracked by using ultrasound homogenisation for 24 hours at 30° C. with HNO3—H2O2 (suprapur grade reagents; Merck). After careful evaporation, the remains were solved in 2% HNO3 for 5 hours at 50° C. This solution was subsequently transferred to a 10 ml volumetric flask. The final clear solution contained 10 ng rhodamin (Rh)/ml and was refilled with 2% HNO3. The detection of zinc was performed by inductively coupled plasma mass spectrometry (ICP-MS, ELAN 6000 Perkin-Elmer/Sciex) and by using Rh as internal standard and a calibration with chemical reagents having the highest purity grade.

Series [4] relates to Human RPE cells. Briefly: Formation of lipofuscin (auto-fluorescence) in RPE cells with tyrosinase inhibited by PTU. It counts as cell-based. The protocol:
Human retinal pigment epithelium cells were isolated 2 hours post mortem from eyes of organ donors by incubation in 0.2% trypsin solution with 0.5 mM EDTA (if not indicated differently the reagents are from Sigma, Deisenhofen, Germany) for 30 minutes. The cells were centrifuged and cultivated in 24-well-plates (Nunc, Mainz, Germany) in Dulbeccos modified Eagle Medium with 15% foetal calf serum, 50 μg/ml gentamycin and 2.5 μg/ml amphotericin. The cells remain in primary culture (P0) for 3 weeks until confluence. Subsequent passaging was performed by trypsination of the cells in the respective time intervals. For the feeding with membranes of visual cells, cells originating from 3 different donors (passage 3, 6 and 16) were used. […]
The cells in group 1+2 were overlaid with about 2×10^6 outer segments of rods. […] After this, the cells were looked at under the fluorescence microscope (Axiovert, Zeiss, Oberkochem, Germany) with filters specific for the auto-fluorescence of the lipofuscein (excitation 360 nm, emission 540 nm, Feuerbacher Analysentechnik, Tübingen, Germany) and were photographed with a digital camera and saved using Openlab Software (Improvision, UK).

`[Cl-].[Cl-].[Zn+2]` [zinc, ZnCl2]: the “amount of mRNA for catalase” value in series [1] (24 hours after 40 mg/kg ZnCl2 i.p.) is “again as high as without zinc injection”. Moreover, in series [1] (six hours after 40 mg/kg ZnCl2 i.p., albino and pigmented rats compared), the “increase of mRNA for catalase (factor)” value came to 12. Also, the “number of surviving cells” value in series [2] (with irradiation (UVA 18 mW/cm^2, 1 hour), 100 μmol Zn) is 33333 ± 11547; in series [2] (with irradiation, 200 μmol Zn) it was 41666 ± 16072. Besides, the “final zinc concentration in pigmented rats relative to treated albinos (times higher)” value in series [3] (after injection of zinc, 24 hours) came to 19. The “zinc concentration of the chorioidea-RPE-complex” value in series [3] (albino (Wistar) rats) was determined as 6.5 µg/g; in series [3] (pigmented (Long Evans) rats) it was 125 µg/g. Further, the “increase of zinc concentration (factor) versus untreated” value in series [3] (pigmented rats, 24 hours after injection of zinc) is on record as 1.6.

In the case of `NC(=S)Nc1ccccc1` [PTU, phenylthiourea], the “auto-fluorescence specific for lipofuscin” value was “intensive, golden auto-fluorescence specific for lipofuscin” in series [4] (group 1: 1 mM PTU, fed with membranes of visual cells on 15 successive days) and “no auto-fluorescence” in series [4] (group 3: 1 mM PTU, not fed).
